Where a name gives a salt, the structure may show the parent alone.
The molecules below were run against T1, recombinant guanylate cyclase reporter cell line (Rattus norvegicus, UniProt P19686+P20595) (assay: Action on recombinant guanylate cyclase reporter cell line). Details: in some cases mean values from individual determinations.
T1 construct: expressed in transfected cells; host or cells: recombinant reporter cell line
T1 sequence (P19686 1-690): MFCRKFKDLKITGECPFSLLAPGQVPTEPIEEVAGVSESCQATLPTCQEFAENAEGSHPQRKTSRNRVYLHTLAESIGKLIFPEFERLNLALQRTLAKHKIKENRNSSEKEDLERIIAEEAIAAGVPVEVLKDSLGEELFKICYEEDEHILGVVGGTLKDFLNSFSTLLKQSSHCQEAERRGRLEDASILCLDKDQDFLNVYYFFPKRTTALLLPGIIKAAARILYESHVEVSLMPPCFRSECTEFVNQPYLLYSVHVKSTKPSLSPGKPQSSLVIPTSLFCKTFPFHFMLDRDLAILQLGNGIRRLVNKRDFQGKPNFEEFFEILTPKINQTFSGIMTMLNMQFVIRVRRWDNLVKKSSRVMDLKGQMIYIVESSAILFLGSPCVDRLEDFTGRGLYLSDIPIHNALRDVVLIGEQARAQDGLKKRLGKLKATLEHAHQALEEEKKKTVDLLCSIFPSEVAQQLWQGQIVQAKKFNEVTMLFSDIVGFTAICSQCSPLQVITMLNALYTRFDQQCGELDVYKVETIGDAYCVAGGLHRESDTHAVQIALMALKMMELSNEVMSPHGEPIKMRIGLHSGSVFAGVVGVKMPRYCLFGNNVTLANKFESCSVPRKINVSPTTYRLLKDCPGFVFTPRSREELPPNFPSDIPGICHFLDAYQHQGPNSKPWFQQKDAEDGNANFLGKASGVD
T1 sequence (P20595 1-619): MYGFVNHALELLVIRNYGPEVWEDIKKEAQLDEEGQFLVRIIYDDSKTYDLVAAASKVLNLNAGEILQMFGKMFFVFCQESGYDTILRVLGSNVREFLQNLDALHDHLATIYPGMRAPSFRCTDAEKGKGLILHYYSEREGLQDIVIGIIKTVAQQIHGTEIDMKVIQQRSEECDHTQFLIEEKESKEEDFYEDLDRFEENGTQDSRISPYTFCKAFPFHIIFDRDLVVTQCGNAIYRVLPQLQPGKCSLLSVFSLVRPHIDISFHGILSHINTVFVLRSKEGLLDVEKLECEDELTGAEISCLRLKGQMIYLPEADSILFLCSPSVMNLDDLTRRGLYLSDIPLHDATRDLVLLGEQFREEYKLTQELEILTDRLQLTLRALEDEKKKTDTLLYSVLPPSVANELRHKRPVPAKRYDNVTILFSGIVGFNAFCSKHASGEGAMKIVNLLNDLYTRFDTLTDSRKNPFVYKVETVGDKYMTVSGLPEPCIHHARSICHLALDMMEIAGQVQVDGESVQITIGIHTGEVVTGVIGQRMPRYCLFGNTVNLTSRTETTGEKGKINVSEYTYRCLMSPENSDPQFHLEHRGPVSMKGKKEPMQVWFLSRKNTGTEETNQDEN
Format: cell-based
In short: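 Each compound is applied to a cell line engineered with a reporter for recombinant guanylate cyclase. The minimal effective concentration is then noted, in part as a mean across separate determinations.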

Row | Compound | MEC (minimal effective concentration)
1 | COC(=O)[C@@H](N)CNC(=O)c1c(C)nc2c(OCc3c(F)cccc3F)cc(C)cn12 [Example 319, Methyl 3-[({8-[(2,6-difluorobenzyl)oxy]-2,6-dimethylimidazo[1,2-a]pyridin-3-yl}carbonyl)amino]-L-alaninate] | 0.30 µM
2 | Cc1cc(OCc2c(F)cccc2F)c2nc(C)c(C(=O)NC(CN)c3ccc(C#N)cc3)n2c1 (centres unmarked) [Example 398] | 0.30 µM
3 | Cc1nc2c(OCc3c(F)cccc3F)cccn2c1C(=O)NCC(C)N (racemic) [Example 34, rac-N-(2-aminopropyl)-8-[(2,6-difluorobenzyl)-oxy]-2-methyl-imidazo[1,2-a]pyridine-3-carboxamide dihydrochloride] | 1.00 µM
4 | Cc1cc(OCc2c(F)cccc2F)c2nc(C)c(C(=O)NC3CCC3(C)N)n2c1 (racemic) [Example 331, rac-N-(2-amino-2-methylcyclobutyl)-8-[(2,6-difluorobenzyl)oxy]-2,6-dimethylimidazo[1,2-a]pyridine-3-carboxamide] | 0.30 µM
5 | Cc1nc2c(OCc3c(F)cccc3F)cccn2c1C(=O)NC(CN)COc1ccc(F)cc1 (racemic) [Example 58, rac-N-[1-amino-3-(4-fluorophenoxy)propan-2-yl]-8-[(2,6-difluorobenzyl)oxy]-2-methylimidazo[1,2-a]pyridine-3-carboxamide] | 1.00 µM
6 | Cc1nc2c(OCc3c(F)cccc3F)cccn2c1C(=O)NC1CC2CCC(C1)N2C (centres unmarked) [Example 91, 8-[(2,6-difluorobenzyl)oxy]-2-methyl-N-(8-methyl-8-azabicyclo[3.2.1]oct-3-yl)imidazo[1,2-a]pyridine-3-carboxamide] | 1.00 µM
7 | Cc1cc(OCc2c(F)cccc2F)c2nc(C)c(C(=O)NC(C)(C)CN)n2c1 [Example 26, N-(1-amino-2-methylpropan-2-yl)-8-[(2,6-difluorobenzyl)oxy]-2,6-dimethylimidazo[1,2-a]-pyridine-3-carboxamide] | 0.30 µM
8 | Cc1nc2c(OCc3c(F)cccc3F)cc(Cl)cn2c1C(=O)NCC1(N)CC1 [Example 39, N-[(1-aminocyclopropyl)methyl]-6-chloro-8-[(2,6-difluorobenzyl)oxy]-2-methylimidazo[1,2-a]pyridine-3-carboxamide] | 0.10 µM
9 | Cc1cc(OCc2c(F)cccc2F)c2nc(C)c(C(=O)NCC(C)N3CCOCC3)n2c1 (single isomer, unassigned; ent-8) [Example 187, ent-8-[(2,6-Difluorobenzyl)oxy]-2,6-dimethyl-N-[2-(morpholin-4-yl)propyl]imidazo[1,2-a]-pyridine-3-carboxamide] | 0.30 µM
10 | CCOCC(CN)NC(=O)c1c(C)nc2c(OCc3c(F)cccc3F)cc(Cl)cn12 (single isomer, unassigned) [Example 57, ent-N-(1-amino-3-ethoxypropan-2-yl)-6-chloro-8-[(2,6-difluorobenzyl)oxy]-2-methylimidazo[1,2-a]-pyridine-3-carboxamide] | 0.30 µM
11 | Cc1nc2c(OCc3c(F)cccc3F)cc(CF)cn2c1C(=O)NCC(C)(N)CF (centres unmarked) [Example 405] | 0.30 µM
12 | Cc1nc2c(OCc3c(F)cccc3F)cc(Cl)cn2c1C(=O)NCC(C)(N)C(F)(F)F (single isomer, unassigned) [Example 238, ent-N-(2-Amino-3,3,3-trifluoro-2-methylpropyl)-6-chloro-8-[(2,6-difluorobenzyl)oxy]-2-methyl-imidazo[1,2-a]pyridine-3-carboxamide] | 1.00 µM
13 | Cc1nc2c(OCc3c(F)cccc3F)cccn2c1C(=O)NC1CNc2ccccc2C1 (single isomer, unassigned; ent-8) [Example 81, ent-8-[(2,6-Difluorobenzyl)oxy]-2-methyl-N-(1,2,3,4-tetrahydroquinolin-3-yl)imidazo[1,2-a]-pyridine-3-carboxamide] | 1.00 µM
14 | Cc1cc(OCc2c(F)cccc2F)c2nc(C)c(C(=O)NC(CN)c3ccc4c(c3)OCO4)n2c1 (racemic) [Example 381, rac-N-[2-amino-1-(1,3-benzodioxol-5-yl)ethyl]-8-[(2,6-difluorobenzyl)oxy]-2,6-dimethylimidazo[1,2-a]pyridine-3-carboxamide] | 0.30 µM
15 | Cc1cc(OCc2c(F)cccc2F)c2nc(C)c(C(=O)NC3CC3N)n2c1 (racemic) [Example 330, rac-N-(2-aminocyclopropyl)-8-[(2,6-difluorobenzyl)oxy]-2,6-dimethylimidazo[1,2-a]pyridine-3-carboxamide] | 0.30 µM
16 | Cc1nc2c(OCc3c(F)cccc3F)cccn2c1C(=O)NC1CCNc2ccccc21 (single isomer, unassigned; ent-8) [Example 52, ent-8-[(2,6-Difluorobenzyl)oxy]-2-methyl-N-(1,2,3,4-tetrahydroquinolin-4-yl)imidazo[1,2-a]-pyridine-3-carboxamide] | 0.03 µM
17 | Cc1cc(OCc2c(F)cccc2F)c2nc(C)c(C(=O)NCC(N)c3ccc(C)o3)n2c1 (racemic) [Example 369, rac-N-[2-amino-2-(5-methyl-2-furyl)ethyl]-8-[(2,6-difluorobenzyl)oxy]-2,6-dimethylimidazo[1,2-a]pyridine-3-carboxamide] | 0.30 µM
18 | CCCC(C)(N)CNC(=O)c1c(C)nc2c(OCc3c(F)cccc3F)cccn12 (stereo not drawn) [Example 318, ent-N-(2-amino-2-methylpentyl)-8-[(2,6-difluorobenzyl)oxy]-2-methylimidazo[1,2-a]pyridine-3-carboxamide] | 0.30 µM
19 | Cc1nc2c(OCc3c(F)cccc3F)cccn2c1C(=O)NC(C)[C@H](C)N (single isomer, unassigned) [Example 175] | 1.00 µM
20 | Cc1nc2c(OCc3c(F)cccc3F)cccn2c1C(=O)NC(CN1CCOCC1)c1ccccc1 (single isomer, unassigned; ent-8) [Example 182, ent-8-[(2,6-Difluorobenzyl)oxy]-2-methyl-N-[2-(morpholin-4-yl)-1-phenylethyl]imidazo[1,2-a]-pyridine-3-carboxamide] | 3.00 µM
21 | Cc1cc(OCc2c(F)cccc2F)c2nc(C)c(C(=O)NC(C)CN)n2c1 (stereo not drawn) [Example 48, ent-N-(1-Aminopropan-2-yl)-8-[(2,6-difluorobenzyl)oxy]-2,6-dimethylimidazo[1,2-a]pyridine-3-carboxamide] | 1.00 µM
22 | Cc1nc2c(OCc3c(F)cccc3F)cc(Cl)cn2c1C(=O)NCCN1C[C@@H](C)O[C@@H](C)C1 [Example 158, 6-chloro-8-[(2,6-difluorobenzyl)oxy]-N-{2-[(2R,6S)-2,6-dimethylmorpholin-4-yl]ethyl}-2-methylimidazo[1,2-a]pyridine-3-carboxamide] | 0.30 µM
23 | Cc1cc(OCc2c(F)cccc2F)c2nc(C)c(C(=O)NCC(C)(N)C(F)(F)F)n2c1 (single isomer, unassigned) [Example 241, ent-N-(2-Amino-3,3,3-trifluoro-2-methylpropyl)-8-[(2,6-difluorobenzyl)oxy]-2,6-dimethylimidazo-[1,2-a]pyridine-3-carboxamide] | 0.30 µM

— US20150274719A1, “AMINO-SUBSTITUTED IMIDAZO[1,2-A]PYRIDINECARBOXAMIDES AND THEIR USE” (BAYER PHARMA AKTIENGESELLSCHAFT, priority 2012, published 2015)
